{"source": "patent US20110123482A1", "about": "“Methods of Treating Neurological Autoimmune Disorders with Cyclophosphamide” (The Johns Hopkins University, priority 2007, published 2011)", "key": {"[1]": {"tested_on": "chronic relapsing experimental autoimmune encephalomyelitis (R-EAE) in SJL/J mice", "conditions": "mouse, in vivo"}, "[2]": {"tested_on": "RRMS", "conditions": "cited from earlier work"}, "[3]": {"tested_on": "class II MHC molecules", "conditions": "cited from earlier work"}}, "note": "Read-outs that look alike come from different tables or passages of the source.", "data": [{"compound": "O=P1(N(CCCl)CCCl)NCCCO1", "note": "(stereo not drawn) [CPA, N,N-bis(2-chloroethyl)-1,3,2-oxazaphosphinan-2-amine 2-oxide]", "values": [{"measurement": "rate of induced relapse with PLP reimmunization following CPA treatment", "setting": "[1]", "result": 70, "unit": "%"}, {"measurement": "spontaneous relapse rate of RR-EAE following CPA treatment", "setting": "[1]", "result": 30, "unit": "%"}, {"measurement": "cessation of EAE activity, share of animals", "setting": "[1]; 200 mg/kg", "result": 95, "unit": "%"}]}, {"compound": "glatiramer acetate", "values": [{"measurement": "induced relapse rate", "setting": "[1]", "result": 10, "unit": "%"}, {"measurement": "rate of cessation of EAE activity by CPA", "setting": "[1]", "result": 95, "unit": "%"}, {"measurement": "spontaneous relapse rate", "setting": "[1]", "result": 2, "unit": "%"}, {"measurement": "time of treatment to reduce the number of lesions and relapses", "setting": "[2]; 20 mg GA, compared to placebo controls", "result": "approximately 3 months"}, {"measurement": "time of treatment to reduce the number of lesions and relapses", "setting": "[2]; 40 mg daily, compared to controls", "result": "less than 3 months"}, {"measurement": "binding affinity to class II MHC molecules", "setting": "[3]", "result": "binds with high affinity"}]}]}
